Where two headings read alike, the source gives them in different places.
How the values were obtained:
[1] = system: apomorphine induced stereotypy; assay: inhibition of apomorphine stereotypy assay (potential for extrapyramidal side effects); format: in vivo, male Wistar rats; settings: rats, drug one hour prior to scoring, apomorphine 1.5 mg/kg s.c.
Method: Potential for undersirable extrapyramidal side effect activity is determined in the inhibition of apomorphine stereotypy assay by a method similar to those described by N. E. Anden, et al., J. Pharma. Pharmacol., 19, 627, (1967), and A. M. Ernst, et al., Psychopharmacologia (Berl.), 10, 316 (1967).
In this assay, groups of male Wistar rats (125-200 grams) are used and food and water are available ad libitum. Drugs are prepared using distilled water and, if insoluble, a suitable surfactant is added. The route of administration may be varied and the dosage volume is 10 ml/kg. For a primary screen, a group size of six is used. Drug is administered one hour prior to scoring and the animals are placed in individual clear plastic cages (24×14×13 cm). The control group receives vehicle. Apomorphine hydrochloride solution is prepared at a concentration of 15 mg/10 ml in a 0.03% ascorbic acid stock solution (30 mg of ascorbic acid in 100 ml of 1% saline) to increase the stability of the apomorphine hydrochloride while in solution. Apomorphine hydrochloride solution is administered at a dose of 1.5 mg/kg subcutaneous (s.c.) with a dosage volume of 1 ml/kg. Fifty minutes after drug dosing, stereotypic behavior is noted. Stereotypic activity is defined as sniffing, licking or chewing behavior that occurs in a repetitive manner and is rated as follows: Constant sniffing, licking or chewing without interruption; the animal is considered protected if this behavior is interrupted.
The percent effectiveness of a drug is determined by the number of animals protected in each group. Antipsychotics displaying little effect in this assay would be expected to show a low propensity to cause undersirable extrapyramidal side effects and/or tardive dyskinesias in mammals (N. C. Moore and S. Gershon, Clinical Neuropharmacology, 12, 167, (1989).
A dose-response is run in the same manner as a primary screen except that a group size of 10 is used and the animals are dosed in a randomized manner. One group receives vehicle. ED50 for stereotypy are calculated by means of probit analysis.
Inhibition of apomorphine induced stereotypy of respresentative 8-azabicyclo[3.2.1]octylalkylthiazolidinones of the present invention and two standards is given in Table II.

[2] = system: apomorphine-induced climbing; assay: inhibition of apomorphine-induced climbing in mice (climbing mice assay, antipsychotic activity); format: in vivo, CK-1 male mice; settings: Mus musculus, ip, 0.5 h, read-out: Antipsychotic Activity ED50
Method: The 8-azabicyclo[3.2.1]octylalkylthiazolidnones of the present invention are useful for treating psychoses by virtue of their ability to block apomorphine-induced climbing in mammals.
Antipsychotic activity is determined in the climbing mice assay by a method similar to those described by P. Protais et al., Psychopharmacol., 50,1 (1976) and B. Costall, Eur. J. Pharmacol., 50, 39 (1978).
The subject CK-1 male mice (23-27 grams) are group-housed under standard laboratory conditions. The mice are individually placed in wire mesh stick cages (4"×4"×10") and are allowed one hour for adaptation and exploration of the new environment. Then apomorphine is injected subcutaneously at 1.5 mg/kg, a dose causing climbing in all subjects for 30 minutes. Compounds to be tested for antipsychotic activity are injected intraperitoneally 30 minutes prior to the apomorphine challenge at a screening dose of 10 mg/kg.
For evaluation of climbing, 3 readings are taken at 10, 20 and 30 minutes after apomorphine administration according to the following scale:
4 paws on bottom (no climbing)
2 paws on the wall (rearing)
4 paws on the wall (full climb)
Mice consistently climbing before the injection of apomorphine will be discarded.
With full-developed apomorphine climbing, the animals are hanging onto the cage walls, rather motionless, over longer periods of time. By contrast, climbs due to mere motor stimulation usually only last a few seconds.
The climbing scores are individually totaled (maximal score; 6 per mouse over 3 readings) and the total score of the control group (vehicle intraperitioneally-apomorphine subcutaneously) is set to 100%. ED50 values with 95% confidence limits are calculated by a Linear Regression Analysis. Antipsychotic activity expressed as the ED50 value of representative 8-azabicyclo[3.2.1]octylalkylthiazolidinones as well as two standard antipsychotics are presented in Table I.

For `CC1(C)SCN(CCCCN2C3CCC2CC(OC(c2ccccc2)c2ccccc2)C3)C1=O.Cl` (centres unmarked) [3-[4-[3-(diphenylmethoxy)-8-azabicyclo[3.2.1]octan-8-yl]-butyl]-5,5-dimethyl-4-thiazolidinone hydrochloride], the “% Inhibition of apomorphine induced stereotypy” value (“% Inhibition” for short) ([1]; dose 40 mg/kg body wt.) was 17% and the ED50 [2] was 7.73 mg/kg.
`O=C(CCCN1CCC(O)(c2ccc(Cl)cc2)CC1)c1ccc(F)cc1` [haloperidol] was tested, and the “% Inhibition” value ([1]; dose 0.2 mg/kg body wt.) was 50% and the ED50 [2] was 0.16 mg/kg.
For `CSc1ccc2c(c1)N(CCC1CCCCN1C)c1ccccc1S2` (centres unmarked) [thioridazine], the “% Inhibition” value ([1]; dose 16 mg/kg body wt.) was 50% and the ED50 ([2]; climbing mice assay, compound intraperitoneal 30 minutes prior to apomorphine 1.5 mg/kg s.c., Linear Regression Analysis) was 4.1 mg/kg.
For `CC1SCN(CCCCN2C3CCC2CC(OC(c2ccccc2)c2ccccc2)C3)C1=O.Cl` (centres unmarked) [3-[4-[3-(diphenylmethoxy)-8-azabicyclo[3.2.1]octan-8-yl]-butyl]-5-methyl-4-thiazolidinone hydrochloride], the “% Inhibition” value ([1]; dose 20 mg/kg body wt.) was 0% and the ED50 [2] was 12.1 mg/kg.

— patent US5045546A, “8-azabicyclo[3.2.1]octylalkylthiazolidines” (Hoechst-Roussel Pharmaceuticals Inc., priority 1990, dated 1991)
